Source: paper PMC12064818, “A general assay platform to study protein pharmacology using ligand-dependent structural dynamics” (Nature Communications, 2025)

Target: firefly luciferase (FLuc) (Photinus pyralis, UniProt P08659)
Assay: Thermal shift profiles (Thermofluor assay), FLuc;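 as to Thermofluor FLuc, No ATP: normalized first derivative of fluorescence (dF/dT) at the stated temperature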
Type: binding
Design: unit of the concentration uncertain
Details: compound 100 (unit uncertain); for Thermofluor FLuc, ATP: ATP (2 (unit uncertain))

Sequence of firefly luciferase (FLuc) (P08659 whole entry): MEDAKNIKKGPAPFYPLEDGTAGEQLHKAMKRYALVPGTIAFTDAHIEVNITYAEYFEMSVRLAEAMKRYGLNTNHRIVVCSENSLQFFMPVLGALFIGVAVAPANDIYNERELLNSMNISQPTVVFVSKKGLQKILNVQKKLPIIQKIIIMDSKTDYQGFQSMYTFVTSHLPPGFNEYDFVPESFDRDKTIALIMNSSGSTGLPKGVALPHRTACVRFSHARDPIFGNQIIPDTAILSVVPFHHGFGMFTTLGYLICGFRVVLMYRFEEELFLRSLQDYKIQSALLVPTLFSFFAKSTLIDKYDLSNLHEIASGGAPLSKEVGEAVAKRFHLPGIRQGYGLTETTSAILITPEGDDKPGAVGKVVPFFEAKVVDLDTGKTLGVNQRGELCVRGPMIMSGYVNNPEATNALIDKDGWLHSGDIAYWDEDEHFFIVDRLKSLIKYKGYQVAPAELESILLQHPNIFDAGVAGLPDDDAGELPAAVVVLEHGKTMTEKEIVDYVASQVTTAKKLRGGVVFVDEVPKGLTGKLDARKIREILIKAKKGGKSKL

COc1ccc(NC(=O)C2CCN(C(=O)c3ncn4c3COC(c3ccccc3)C4)CC2)cc1Cl (centres unmarked) [NCGC 00449919]
Thermofluor FLuc, No ATP (20.000 °C): 0.250
Thermofluor FLuc, ATP (20.000 °C): 0.934
Thermofluor FLuc, No ATP (20.993 °C): 0.185
Thermofluor FLuc, ATP (20.993 °C): 0.955
Thermofluor FLuc, No ATP (21.987 °C): 0.201
Thermofluor FLuc, ATP (21.987 °C): 0.975
Thermofluor FLuc, No ATP (22.980 °C): 0.152
Thermofluor FLuc, ATP (22.980 °C): 0.992
Thermofluor FLuc, No ATP (23.974 °C): 0.098
Thermofluor FLuc, ATP (23.974 °C): 1
Thermofluor FLuc, No ATP (24.967 °C): 0.101
Thermofluor FLuc, ATP (24.967 °C): 0.999
Thermofluor FLuc, No ATP (25.960 °C): 0.104
Thermofluor FLuc, ATP (25.960 °C): 0.991
Thermofluor FLuc, No ATP (26.954 °C): 0.059
Thermofluor FLuc, ATP (26.954 °C): 0.977
Thermofluor FLuc, No ATP (27.947 °C): 0.054
Thermofluor FLuc, ATP (27.947 °C): 0.961
Thermofluor FLuc, No ATP (28.940 °C): 0.030
Thermofluor FLuc, ATP (28.940 °C): 0.943
Thermofluor FLuc, No ATP (29.934 °C): 0.043
Thermofluor FLuc, ATP (29.934 °C): 0.925
Thermofluor FLuc, No ATP (30.927 °C): 0.015
Thermofluor FLuc, ATP (30.927 °C): 0.906
Thermofluor FLuc, No ATP (31.921 °C): 0.031
Thermofluor FLuc, ATP (31.921 °C): 0.886
Thermofluor FLuc, No ATP (32.914 °C): 0.002
Thermofluor FLuc, ATP (32.914 °C): 0.862
Thermofluor FLuc, No ATP (33.907 °C): 0.008
Thermofluor FLuc, ATP (33.907 °C): 0.832
Thermofluor FLuc, No ATP (34.901 °C): 0.005
Thermofluor FLuc, ATP (34.901 °C): 0.793
Thermofluor FLuc, No ATP (35.894 °C): 0.014
Thermofluor FLuc, ATP (35.894 °C): 0.741
Thermofluor FLuc, No ATP (36.887 °C): 0.000
Thermofluor FLuc, ATP (36.887 °C): 0.675
Thermofluor FLuc, No ATP (37.881 °C): 0.036
Thermofluor FLuc, ATP (37.881 °C): 0.591
Thermofluor FLuc, No ATP (38.874 °C): 0.034
Thermofluor FLuc, ATP (38.874 °C): 0.492
Thermofluor FLuc, No ATP (39.868 °C): 0.075
Thermofluor FLuc, ATP (39.868 °C): 0.38
Thermofluor FLuc, No ATP (40.861 °C): 0.126
Thermofluor FLuc, ATP (40.861 °C): 0.264
Thermofluor FLuc, No ATP (41.854 °C): 0.197
Thermofluor FLuc, ATP (41.854 °C): 0.155
Thermofluor FLuc, No ATP (42.848 °C): 0.295
Thermofluor FLuc, ATP (42.848 °C): 0.067
Thermofluor FLuc, No ATP (43.841 °C): 0.412
Thermofluor FLuc, ATP (43.841 °C): 0.013
Thermofluor FLuc, No ATP (44.835 °C): 0.542
Thermofluor FLuc, ATP (44.835 °C): 0
Thermofluor FLuc, No ATP (45.828 °C): 0.677
Thermofluor FLuc, ATP (45.828 °C): 0.03
Thermofluor FLuc, No ATP (46.821 °C): 0.764
Thermofluor FLuc, ATP (46.821 °C): 0.099
Thermofluor FLuc, No ATP (47.815 °C): 0.849
Thermofluor FLuc, ATP (47.815 °C): 0.195
Thermofluor FLuc, No ATP (48.808 °C): 0.904
Thermofluor FLuc, ATP (48.808 °C): 0.306
Thermofluor FLuc, No ATP (50.795 °C): 0.949
Thermofluor FLuc, ATP (50.795 °C): 0.532
Thermofluor FLuc, No ATP (51.788 °C): 1.000
Thermofluor FLuc, ATP (51.788 °C): 0.632
Thermofluor FLuc, ATP (52.782 °C): 0.721
Thermofluor FLuc, No ATP (53.775 °C): 1.000
Thermofluor FLuc, ATP (53.775 °C): 0.796
Thermofluor FLuc, No ATP (54.768 °C): 0.991
Thermofluor FLuc, ATP (54.768 °C): 0.857
Thermofluor FLuc, No ATP (55.762 °C): 0.972
Thermofluor FLuc, ATP (55.762 °C): 0.903
Thermofluor FLuc, No ATP (56.755 °C): 0.954
Thermofluor FLuc, ATP (56.755 °C): 0.933
Thermofluor FLuc, No ATP (57.748 °C): 0.930
Thermofluor FLuc, ATP (57.748 °C): 0.95
Thermofluor FLuc, No ATP (58.742 °C): 0.908
Thermofluor FLuc, ATP (58.742 °C): 0.958
Thermofluor FLuc, No ATP (59.735 °C): 0.892
Thermofluor FLuc, ATP (59.735 °C): 0.959
Thermofluor FLuc, No ATP (60.729 °C): 0.925
Thermofluor FLuc, ATP (60.729 °C): 0.959
Thermofluor FLuc, No ATP (61.722 °C): 0.872
Thermofluor FLuc, ATP (61.722 °C): 0.958
Thermofluor FLuc, No ATP (62.715 °C): 0.877
Thermofluor FLuc, ATP (62.715 °C): 0.96
Thermofluor FLuc, No ATP (63.709 °C): 0.837
Thermofluor FLuc, ATP (63.709 °C): 0.963
Thermofluor FLuc, No ATP (65.695 °C): 0.837
Thermofluor FLuc, ATP (65.695 °C): 0.975
Thermofluor FLuc, No ATP (66.689 °C): 0.789
Thermofluor FLuc, ATP (66.689 °C): 0.981
Thermofluor FLuc, No ATP (68.676 °C): 0.772
Thermofluor FLuc, ATP (68.676 °C): 0.992
Thermofluor FLuc, No ATP (69.669 °C): 0.774
Thermofluor FLuc, ATP (69.669 °C): 0.996
Thermofluor FLuc, No ATP (70.662 °C): 0.720
Thermofluor FLuc, ATP (70.662 °C): 0.998
Thermofluor FLuc, No ATP (71.656 °C): 0.708
Thermofluor FLuc, ATP (71.656 °C): 0.999
Thermofluor FLuc, No ATP (72.649 °C): 0.718
Thermofluor FLuc, ATP (72.649 °C): 0.999
Thermofluor FLuc, No ATP (73.643 °C): 0.669
Thermofluor FLuc, ATP (73.643 °C): 0.998
Thermofluor FLuc, No ATP (74.636 °C): 0.675
Thermofluor FLuc, ATP (74.636 °C): 0.997
Thermofluor FLuc, No ATP (75.629 °C): 0.640
Thermofluor FLuc, ATP (75.629 °C): 0.995
